Measurements reported in PubChem BioAssay AID330 (DTP/NCI, 2004).
Where “and” joins values, the source holds several entries; their conditions need not be identical. Equal entries are not always repeated. Toxic doses and inconclusive results are not listed.

Test system: P388 leukemia ip, CD2F1 mice, survival T/C
Assay: NCI In Vivo Anticancer Drug Screen. Data for tumor model P388 Leukemia (intraperitoneal) in CD2F1 (CDF1) mice
Conditions: endpoint: median survival time, higher = longer survival
Method in brief: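 Mice carrying the transplanted tumor received test compound or vehicle. Survival was recorded in each group, and the value is the treated-group measurement divided by that of the vehicle-treated control group.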

[1] = dose: 25.0 mg/kg/injection, schedule: Q01DX009 (ip), vehicle: distilled water + Tween-80
[2] = dose: 50.0 mg/kg/injection, schedule: Q01DX009 (ip), vehicle: distilled water + Tween-80
[3] = dose: 6.25 mg/kg/injection, schedule: Q01DX009 (ip), vehicle: water
[4] = dose: 12.5 mg/kg/injection, schedule: Q01DX009 (ip), vehicle: water
[5] = dose: 25.0 mg/kg/injection, schedule: Q01DX009 (ip), vehicle: water
[6] = dose: 50.0 mg/kg/injection, schedule: Q01DX009 (ip), vehicle: water
[7] = dose: 100.0 mg/kg/injection, schedule: Q01DX009 (ip), vehicle: water

CC1COCCOC(=O)c2cccc(n2)C(=O)OCCOCC(C)O1 (stereo not drawn)
T/C (dose: 100.0 mg/kg/injection, schedule: Q04DX003 (ip), vehicle: Klucel (hydroxypropylcellulose) (HPC)): 102 % of control
T/C (dose: 200.0 mg/kg/injection, schedule: Q04DX003 (ip), vehicle: Klucel (hydroxypropylcellulose) (HPC)): 95 % of control
T/C (dose: 400.0 mg/kg/injection, schedule: Q04DX003 (ip), vehicle: Klucel (hydroxypropylcellulose) (HPC)): 102 % of control

COc1cccc(C[n+]2ccccc2C#N)c1OC
T/C (dose: 3.12 mg/kg/injection, schedule: Q04DX002 (ip), vehicle: saline): 101 % of control
T/C (dose: 6.25 mg/kg/injection, schedule: Q04DX002 (ip), vehicle: saline): 102 % of control
T/C (dose: 12.5 mg/kg/injection, schedule: Q04DX002 (ip), vehicle: saline): 103 % of control and 92 % of control

CC(=O)Oc1c[nH]c(=O)[nH]c1=O
T/C [1]: 103 % of control and 97 % of control
T/C [2]: 100 % of control and 97 % of control
T/C (dose: 100.0 mg/kg/injection, schedule: Q01DX009 (ip), vehicle: distilled water + Tween-80): 102 % of control and 103 % of control and 112 % of control
T/C (dose: 200.0 mg/kg/injection, schedule: Q01DX009 (ip), vehicle: distilled water + Tween-80): 109 % of control and 114 % of control and 119 % of control
T/C (dose: 400.0 mg/kg/injection, schedule: Q01DX009 (ip), vehicle: distilled water + Tween-80): 103 % of control and 123 % of control

O=NNc1c2c(nc3ccccc13)CCCC2
T/C (dose: 3.12 mg/kg/injection, schedule: Q01DX009 (ip), vehicle: water): 94 % of control
T/C [3]: 94 % of control
T/C [4]: 103 % of control
T/C [5]: 100 % of control and 111 % of control and 112 % of control
T/C [6]: 100 % of control and 110 % of control and 123 % of control
T/C [7]: 100 % of control and 106 % of control
T/C (dose: 200.0 mg/kg/injection, schedule: Q01DX009 (ip), vehicle: water): 89 % of control

CCCCN(CCCC)CC(C)(O)CNc1cc(OC)cc2cccnc12 (stereo not drawn)
T/C (dose: 25.0 mg/kg/injection, schedule: Q01DX005 (ip), vehicle: saline): 101 % of control
T/C (dose: 50.0 mg/kg/injection, schedule: Q01DX005 (ip), vehicle: saline): 107 % of control
T/C (dose: 100.0 mg/kg/injection, schedule: Q01DX005 (ip), vehicle: saline): 98 % of control

C=CCn1c(SC)nc2c(c1=O)CCCC2
T/C (dose: 60.0 mg/kg/injection, schedule: Q01DX005 (ip), vehicle: saline with Tween-80): 108 % of control
T/C (dose: 120.0 mg/kg/injection, schedule: Q01DX005 (ip), vehicle: saline with Tween-80): 97 % of control

O=CC(CO)C(C=O)n1ncc2ccccc21 (stereo not drawn)
T/C (dose: 4.0 mg/kg/injection, schedule: Q01DX009 (ip), vehicle: saline with Tween-80): 120 % of control
T/C (dose: 8.0 mg/kg/injection, schedule: Q01DX001 (ip), vehicle: suspension in saline): 108 % of control
T/C (dose: 16.0 mg/kg/injection, schedule: Q01DX001 (ip), vehicle: saline): 107 % of control
T/C (dose: 16.0 mg/kg/injection, schedule: Q01DX001 (ip), vehicle: suspension in saline): 98 % of control
T/C (dose: 16.0 mg/kg/injection, schedule: Q01DX009 (ip), vehicle: saline with Tween-80): 119 % of control
T/C (dose: 32.0 mg/kg/injection, schedule: Q01DX001 (ip), vehicle: saline): 107 % of control and 116 % of control
T/C (dose: 32.0 mg/kg/injection, schedule: Q01DX001 (ip), vehicle: suspension in saline): 94 % of control
T/C (dose: 64.0 mg/kg/injection, schedule: Q01DX001 (ip), vehicle: saline): 172 % of control
T/C (dose: 64.0 mg/kg/injection, schedule: Q01DX001 (ip), vehicle: suspension in saline): 108 % of control

O=C(NC(c1ccccc1)N1CCOCC1)c1ccccc1 (stereo not drawn)
T/C (dose: 50.0 mg/kg/injection, schedule: Q01DX005 (ip), vehicle: Klucel + Tween-80): 108 % of control
T/C (dose: 100.0 mg/kg/injection, schedule: Q01DX005 (ip), vehicle: Klucel + Tween-80): 112 % of control
T/C (dose: 200.0 mg/kg/injection, schedule: Q01DX005 (ip), vehicle: Klucel + Tween-80): 114 % of control

CN1CCC(COC(=O)CC(C)(C)C)C1 (stereo not drawn)
T/C (dose: 3.13 mg/kg/injection, schedule: Q01DX009 (ip), vehicle: water): 105 % of control
T/C [3]: 100 % of control
T/C [4]: 99 % of control
T/C [5]: 101 % of control
T/C [6]: 105 % of control
T/C [7]: 101 % of control

Cc1ccc(S(=O)(=O)N/N=C/C(Br)=C(/Br)C(=O)O)cc1
T/C [1]: 154 % of control and 171 % of control
T/C [2]: 157 % of control and 166 % of control
